Article PMC10802587 (bioRxiv, 2024)
“Also recorded” adds a separate entry of the source. Read-outs that look alike come from different tables or passages of the source.

How the values were obtained:
[1] = tested on: global palmitoylation in infected red blood cells; assay: Global palmitoylation; type: cell-based, P. falciparum; settings: after 16 hours 17-ODYA incubation
[2] = biological target: T1, hMAGL (Homo sapiens, UniProt Q99685); assay: hMAGL inhibition assay; type: biochemical
T1 sequence (Q99685 1-303): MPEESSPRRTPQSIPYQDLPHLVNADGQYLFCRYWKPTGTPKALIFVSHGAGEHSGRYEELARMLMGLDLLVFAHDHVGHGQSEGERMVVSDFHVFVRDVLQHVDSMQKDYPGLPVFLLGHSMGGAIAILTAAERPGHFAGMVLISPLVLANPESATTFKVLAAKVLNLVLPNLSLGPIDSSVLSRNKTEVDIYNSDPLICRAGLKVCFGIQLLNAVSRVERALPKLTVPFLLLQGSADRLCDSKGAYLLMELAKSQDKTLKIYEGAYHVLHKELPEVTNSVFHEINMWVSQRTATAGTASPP

[3] = tested on: synchronized ring stage W2 parasites; assay: 72-hour parasite growth; type: cell-based, P. falciparum; settings: for EC50: Plasmodium falciparum
[4] = biological target: recombinant PfMAGL (Plasmodium falciparum, UniProt Q8IJ22); type: biochemical, P. falciparum
Sequence of recombinant PfMAGL (Q8IJ22 1-359): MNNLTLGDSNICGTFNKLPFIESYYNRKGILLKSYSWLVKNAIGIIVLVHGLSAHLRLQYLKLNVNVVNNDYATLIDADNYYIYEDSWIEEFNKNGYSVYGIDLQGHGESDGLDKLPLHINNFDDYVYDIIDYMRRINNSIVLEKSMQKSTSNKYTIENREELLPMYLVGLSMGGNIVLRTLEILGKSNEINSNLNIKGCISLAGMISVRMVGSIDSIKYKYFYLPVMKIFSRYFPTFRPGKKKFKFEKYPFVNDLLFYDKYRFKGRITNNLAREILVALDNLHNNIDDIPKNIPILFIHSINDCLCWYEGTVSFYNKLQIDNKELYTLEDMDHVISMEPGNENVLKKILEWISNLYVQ

[5] = tested on: W2 ring stage cultures; assay: Stage specific killing assay; type: cell-based, P. falciparum; settings: 10 μM, ring stage W2 parasites, smears every twelve hours
[6] = tested on: SalA resistant Dd2-Polδ lines (PRELI domain-containing protein mutants); assay: In vitro drug susceptibility assay, SalA selected PRELI mutant lines; type: cell-based, P. falciparum
[7] = tested on: Human Foreskin Fibroblasts; assay: Human cell cytotoxicity assay; type: cell-based; settings: at concentrations up to 50 μM, 72 h, HFF
[8] = tested on: abH112 cKD and control NF54 parasites; assay: Susceptibility of abH112 cKD and NF54 parasites +/- aTC; type: cell-based, P. falciparum; settings: presence and absence of aTC
[9] = tested on: parasite food vacuole; assay: Food vacuole visualization; type: cell-based, P. falciparum; settings: 5 μM for 16 hrs; reduction not significant
[10] = tested on: synchronized W2 ring stage parasites; assay: Lipidomic analysis of treated parasites; type: cell-based, P. falciparum; settings: 900 nM, 24 hours versus DMSO (Figure 5B)
[11] = tested on: 3D7 ring-stage parasites; assay: P. falciparum rate of kill assay; type: cell-based; settings: compared with chloroquine, pyrimethamine, atovaquone
[12] = tested on: W2 ring stage cultures; settings: ref Yoo et al., 2020; cited from earlier work
[13] = tested on: 3D7 ring-stage parasites; settings: known fast, medium, slow acting inhibitors; ref Sanz et al., 2012; cited from earlier work
[14] = 72 h, read-out: EC50 parasite growth

CCCCCCCCCCCCCCC(Br)C(=O)O (stereo not drawn) [Compound 2-BP, 2-bromopalmitate, reference compound]
changes in global palmitoylation [1]: changes in patterns of palmitoylation

C#CCCCCP(=O)(OCC)Oc1ccc(S(=O)(=O)F)cc1 (stereo not drawn) [Compound 2]
potency against hMAGL (in words) [2]: highest potency
EC50 [3, 14]: 1600 nM

CCCCCCCCCCCCCCCP(=O)(OCC)Oc1c(F)cccc1F (stereo not drawn) [Compound 21]
potency against recombinant PfMAGL (in words) [4]: picomolar inhibitors; also recorded: pM inhibitors
changes in global palmitoylation [1]: did not observe any changes in global palmitoylation
parasite killing ([3]; at concentrations up to 20 μM, 72 hours, W2): no killing
blood stage where growth was arrested [5]: progressed through the blood stage lifecycle

CCCCCCCCCCCCCCCP(=O)(OCC)Oc1cc(F)cc(F)c1 (stereo not drawn) [Compound 22]
increase in EC50, PRELI mutant parasites compared to Dd2-Polδ parental line [6]: 7–10 fold
impact on mammalian cell viability [7]: no impact on mammalian cell viability
potency against recombinant PfMAGL (in words) [4]: picomolar inhibitors; also recorded: pM inhibitors
effect of abH112 knockdown on parasite susceptibility to compound [8]: did not affect parasite susceptibility
food vacuole size [9]: small reduction in food vacuole size
changes in global palmitoylation [1]: did not observe any changes in global palmitoylation
changes in lipid classes [10]: downregulation of both ceramides and diacylglycerides
rate of kill (in words) [11]: faster than pyrimethamine, but not as fast as chloroquine
rescue of killing phenotype by palmitate and oleate supplementation ([3]; 5 µM compound, 30 µM palmitate, oleate or both, 72 hours): did not rescue
drop in potency, 1 hour pulse compared to continuous treatment ([3]; 1 hour treatment followed by washout): ten-fold drop in potency
EC50 [3, 14]: 188 nM
EC50 ([3]; read-out: EC50 after 1 hour treatment and washout): 1330 nM
blood stage where growth was arrested [5]: arrested in growth at 24 hours

CCCCCCCCCCC[C@@H](C[C@@H]1OC(=O)[C@H]1CCCCCC)OC(=O)[C@H](CC(C)C)NC=O [Orlistat]
blood stage where progression is blocked [12]: block progression at the late schizont stage

O=C1C(O)=C([C@H]2CC[C@H](c3ccc(Cl)cc3)CC2)C(=O)c2ccccc21 [atovaquone]
rate of kill class of known inhibitors [13]: slow

CCN(CC)CCCC(C)Nc1ccnc2cc(Cl)ccc12 (stereo not drawn) [chloroquine]
rate of kill class of known inhibitors [13]: fast

CCc1nc(N)nc(N)c1-c1ccc(Cl)cc1 [pyrimethamine]
rate of kill class of known inhibitors [13]: medium
